# US20150011528A1, “PHENYLIMIDE-CONTAINING BENZOTHIAZOLE DERIVATIVE OF ITS SALT AND PHARMACEUTICAL COMPOSITION COMPRISING THE SAME” (YUHAN CORPORATION, priority 2011, published 2015)
# Legend:
# Assay type in all cases: cell-based
# [1] = target: T1, binding between KRS and AIMP2 (Homo sapiens, UniProt Q15046); assay: Yeast Two Hybrid specificity test, LexA-KRS / B42-AIMP2 co-transformed yeast cells; settings: 1 μL of 20 mM DMSO solution per 200 μL culture; 30° C., 6 days; absorbance 540 nm; non-treated control = 100%
# T1 construct: expressed in transfected cells; host or cells: yeast cells (co-transformed)
# Protocol: (§1) And also, specificity of the inhibitory activity was evaluated, using the yeast cells cotransformed with the LexA-KRS vector and the B42-AIMP2 vector; and the yeast cells co-transformed with the LexA-KRS vector and the B42-AIMP3 vector, which were respectively prepared according to WO2011/056021. The co-transformation was carried out using the Yeastmaker yeast transformation system2 kit (Clontech), according to the manufacturer's instruction. […] The cultured yeast cells were diluted with the said galactose medium, until the absorbance at 540 nm attains to about 0.15 to 0.2. The diluted culture (200 μL), containing the yeast cells, was added to each well of a 96-well plate. Each test compound was dissolved in dimethyl sulfoxide at a concentration of 20 mM and then the resulting solutions (1 μL) were added to each well. The plate was cultured at 30° C. for 6 days and then the absorbance of each well was measured at 540 nm. The respective yeast cell proliferation rates (%) in the treated samples were calculated in comparison with those of the non-treated control (100%) and the results thereof are shown in Table 1 below.
# [2] = target: T2, binding between KRS and AIMP3 (Homo sapiens, UniProt Q15046); assay: Yeast Two Hybrid specificity test, LexA-KRS / B42-AIMP3 co-transformed yeast cells; settings: 1 μL of 20 mM DMSO solution per 200 μL culture; 30° C., 6 days; absorbance 540 nm; non-treated control = 100%
# T2 construct: expressed in transfected cells; host or cells: yeast cells (co-transformed)
# Protocol: as §1
# [3] = target: T3, interaction between the KRS protein and the laminin receptor (LR) (Homo sapiens, UniProt Q15046); assay: Yeast Two Hybrid inhibition of the interaction between the KRS protein and the laminin receptor (LR); settings: 1 μL of 20 mM DMSO solution per 200 μL culture; 30° C., 6 days; absorbance 540 nm; non-treated control = 100%
# T3 construct: expressed in transfected cells; host or cells: yeast EGY/SH cells
# Protocol: The inhibitory activity against the interaction between the KRS protein and the laminin receptor (LR) was evaluated according to the Yeast Two Hybrid method described in WO2011/056021. According to the disclosures of WO2011/056021, we prepared a vector obtained by cloning the KRS gene in the LexA vector (Clontech) and a vector obtained by cloning the LR gene in the B42 vector (Clontech). The yeast cells, i.e., EGY/SH cells were co-transformed with the LexA-KRS vector and the B42-LR vector. The co-transformation was carried out using the Yeastmaker yeast transformation system2 kit (Clontech), according to the manufacturer's instruction. […] The cultured yeast cells were diluted with the said galactose medium, until the absorbance at 540 nm attains to about 0.15 to 0.2. The diluted culture (200 μL), containing the yeast cells, was added to each well of a 96-well plate. Each test compound was dissolved in dimethyl sulfoxide at a concentration of 20 mM and then the resulting solutions (1 μL) were added to each well. The plate was cultured at 30° C. for 6 days and then the absorbance of the each well was measured at 540 nm.
# as §1
# When KRS is bound to LR, the trans-activation domain is come close to the DNA-binding domain and the genes for synthesizing essential amino acids are expressed, which leads to normal growth of the transformed yeasts, thereby increasing the absorbance.
# A549 cells = assay: Cell Migration Assay (transwell, laminin); settings: Homo sapiens, laminin 10 μg/mL in lower well, test compounds 0.39˜100 μM, 6 hours at 37° C.
# Protocol: Cell migration was measured with a 24-well transwell having a polycarbonate membrane (8.0 μm pore size, Costar) at the bottom of the upper chamber. Each lower well was treated with laminin (10 μg/mL) and test compounds (0.39˜100 μM) along with a serum-free RPMI1640 medium. A549 cells (Korean Cell Line Bank) were suspended in a serum-free RPMI1640 medium at a concentration of 1×10^6 cells/mL and then the test compounds were added thereto at the indicated concentrations. Each resulting solution (100 μL) was added to the upper chamber. The cells were cultured at 37° C. for 6 hours in a CO2 incubator. The upper chamber was taken out and then the cells were fixed with PBS containing 70% methyl alcohol for 10 minutes, followed by washing with PBS twice. The cells were stained with hematoxylin (Sigma) for 10 minutes and then washed with distilled water. The non-migrated cells were removed from the upper portion of the polycarbonate membrane with a cotton swab. The membranes were excised and separated from the chamber, and then mounted to a slide using a gel mount reagent (Biomeda, USA). The migrated cells (attached to the lower face of the membrane) were counted at three randomly selected sites under a microscope (×20). The cell counting was performed with the Image J program. From the counted cell numbers, each IC50 value was calculated by non-linear regression curve fit using the “GraphPad Prism” program.
# The cells are pulled by laminin residing in the lower chamber and then passed through the polycarbonate membrane, so as to attach to the lower face of the membrane.
# T1 sequence (Q15046 whole entry): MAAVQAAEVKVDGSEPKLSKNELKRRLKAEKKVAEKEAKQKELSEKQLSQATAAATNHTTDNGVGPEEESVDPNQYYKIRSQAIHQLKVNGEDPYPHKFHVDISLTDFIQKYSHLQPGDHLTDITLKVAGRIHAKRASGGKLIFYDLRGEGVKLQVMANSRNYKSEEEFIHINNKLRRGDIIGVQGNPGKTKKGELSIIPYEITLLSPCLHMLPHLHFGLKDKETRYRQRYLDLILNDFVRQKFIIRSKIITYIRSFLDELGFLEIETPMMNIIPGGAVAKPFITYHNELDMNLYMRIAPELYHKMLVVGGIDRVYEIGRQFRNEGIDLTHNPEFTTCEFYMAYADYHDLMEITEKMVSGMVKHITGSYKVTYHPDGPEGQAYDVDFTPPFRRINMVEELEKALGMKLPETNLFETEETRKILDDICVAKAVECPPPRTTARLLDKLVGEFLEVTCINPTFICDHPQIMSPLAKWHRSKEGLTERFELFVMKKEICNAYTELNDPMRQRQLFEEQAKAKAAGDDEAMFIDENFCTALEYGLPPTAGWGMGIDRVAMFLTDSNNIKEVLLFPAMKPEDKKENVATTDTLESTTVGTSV
# T2 sequence (Q15046 whole entry): as above
# T3 sequence (Q15046 whole entry): as above
Compound,Yeast cell proliferation rates KRS-AIMP2 (%) [1] [%],Yeast cell proliferation rates KRS-AIMP3 (%) [2] [%],Yeast cell proliferation rates KRS-LR (%) [3] [%],IC50 (A549 cells) [µM]
"CC(C(=O)O)n1c(=NC(=O)c2ccc(F)c(F)c2)sc2cc(F)c(F)cc21 (centres unmarked) [Example 463, 2-(2-((3,4-difluorobenzoyl)imino)-5,6-difluorobenzo[d]thiazol-3(2H)-yl)propionic acid]",96.7,93.2,34.3,
"CCOc1ccc2c(c1)sc(=NC(=O)c1ccc(F)cc1)n2C(CC)C(=O)O (centres unmarked) [Example 476, 2-(6-ethoxy-2-((4-fluorobenzoyl)imino)benzo[d]thiazol-3(2H)-yl)butanoic acid]",91.0,86.1,29.6,
"CCC(C(=O)O)n1c(=NC(=O)c2cccc(F)c2)sc2c(F)c(F)ccc21 (centres unmarked) [Example 582, 2-(6,7-difluoro-2-((3-fluorobenzoyl)imino)benzo[d]thiazol-3(2H)-yl)butanoic acid]",99.0,93.0,49.3,
CCC(C(=O)O)n1c(=NC(=O)c2cccc(OC)c2)sc2c(F)cccc21 (centres unmarked) [Example 532],98.6,97.3,43.7,
"Cc1ccc(C(=O)N=c2sc3ccc(F)cc3n2C(C)C(=O)O)cc1 (centres unmarked) [Example 91, 2-[5-fluoro-2-(4-methylbenzoylimino)benzo[d]thiazol-3(2H)-yl]propionic acid]",116.6,98.5,27.8,
"CCC(C(=O)O)n1c(=NC(=O)c2ccc(C)cc2)sc2cc3c(cc21)OCO3 (centres unmarked) [Example 237, 2-(6-((4-methylbenzoyl)imino)-[1,3]dioxolo[4′,5′:4,5]benzo[1,2-d]thiazol-7(6H)-yl)butanoic acid]",99.0,114.8,34.1,
CCC(C(=O)O)n1c(=NC(=O)c2ccc(OC)cc2)sc2c(F)cccc21 (centres unmarked) [Example 533],94.8,98.3,39.0,
"CC(C(=O)O)n1c(=NC(=O)c2cccc(Cl)c2)sc2c(F)c(F)ccc21 (centres unmarked) [Example 337, 2-(2-((3-chlorobenzoyl)imino)-6,7-difluorobenzo[d]thiazol-3(2H)-yl)propionic acid]",92.5,100.3,12.3,
"CCC(C(=O)O)n1c(=NC(=O)c2ccc(C)cc2)sc2c(C)cccc21 (centres unmarked) [Example 344, 2-(7-methyl-2-((4-methylbenzoyl)imino)benzo[d]thiazol-3(2H)-yl)butanoic acid]",99.0,102.8,11.7,
"CCC(C(=O)O)n1c(=NC(=O)c2ccc(C)cc2)sc2cccc(OC)c21 (centres unmarked) [Example 8, 2-{4-methoxy-2-[(4-methylbenzoyl)imino]benzo[d]thiazol-3(2H)-yl}butanoic acid]",84.6,84.1,17.4,
"CC(C(=O)O)n1c(=NC(=O)c2cccc(C(F)(F)F)c2)sc2ccc(Cl)cc21 (centres unmarked) [Example 359, 2-(5-chloro-2-((3-(trifluoromethyl)benzoyl)imino)benzo[d]thiazol-3(2H)-yl)propionic acid]",101.6,107.0,21.9,
"CC(C(=O)O)n1c(=NC(=O)c2cccc(Cl)c2)sc2c(F)c(F)c(F)cc21 (centres unmarked) [Example 416, 2-(2-((3-chlorobenzoyl)imino)-5,6,7-trifluorobenzo[d]thiazol-3(2H)-yl)propionic acid]",99.6,99.3,24.7,
CCC(C(=O)O)n1c(=NC(=O)c2ccc(OC)cc2)sc2c(F)c(F)ccc21 (centres unmarked) [Example 585],95.8,84.0,46.3,
"Cc1cccc2c1sc(=NC(=O)c1cccc(Cl)c1)n2C(C)C(=O)O (centres unmarked) [Example 353, 2-(2-((3-chlorobenzoyl)imino)-7-methylbenzo[d]thiazol-3(2H)-yl)propionic acid]",89.4,99.5,28.2,
"CCC(C(=O)O)n1c(=NC(=O)c2ccc(C)cc2)sc2c(F)c(F)ccc21 (centres unmarked) [Example 335, 2-(6,7-difluoro-2-((4-methylbenzoyl)imino)benzo[d]thiazol-3(2H)-yl)butanoic acid]",101.6,105.3,10.8,
"CCC(C(=O)O)n1c(=NC(=O)c2cccc(F)c2)sc2c(Cl)cccc21 (centres unmarked) [Example 543, 2-(7-chloro-2-((3-fluorobenzoyl)imino)benzo[d]thiazol-3(2H)-yl)butanoic acid]",97.1,90.3,36.1,
"CCC(C(=O)O)n1c(=NC(=O)c2cccc(Cl)c2)sc2c(C)cccc21 (centres unmarked) [Example 354, 2-(2-((3-chlorobenzoyl)imino)-7-methylbenzo[d]thiazol-3(2H)-yl)butanoic acid]",103.0,106.4,30.2,
"CC(C(=O)O)n1c(=NC(=O)c2cccc(C(F)(F)F)c2)sc2ccc(F)cc21 (centres unmarked) [Example 355, 2-(5-fluoro-2-((3-(trifluoromethyl)benzoyl)imino)benzo[d]thiazol-3(2H)-yl)propionic acid]",97.2,104.4,22.1,
"CCOc1ccc2c(c1)sc(=NC(=O)c1ccc(C)cc1)n2C(CC)C(=O)O (centres unmarked) [Example 7, 2-{6-ethoxy-2-[(4-methylbenzoyl)imino]benzo[d]thiazol-3(2H)-yl}butanoic acid]",106.4,100.1,36.9,
"CCC(C(=O)O)n1c(=NC(=O)c2ccc(C)cc2)sc2cc(F)ccc21 (centres unmarked) [Example 153, 2-[6-fluoro-2-(4-methylbenzoylimino)benzo[d]thiazol-3(2H)-yl]butanoic acid]",,,,31.1
"CC(C(=O)O)n1c(=NC(=O)c2ccc(F)c(Cl)c2)sc2cc(F)c(F)cc21 (centres unmarked) [Example 466, 2-(2-((3-chloro-4-fluorobenzoyl)imino)-5,6-difluorobenzo[d]thiazol-3(2H)-yl)propionic acid]",,,,49
CCC(C(=O)O)n1c(=NC(=O)c2ccc(OC)cc2)sc2cc(OC(F)(F)F)ccc21 (centres unmarked) [Example 507],99.3,99.0,45.9,
